Reference: patent US10189809B2, “SGC stimulators” (Ironwood Pharmaceuticals, Inc., priority 2010, dated 2019)
Read-outs that look alike come from different tables or passages of the source.

Key:
[1] = target: Human soluble guanylate cyclase enzyme (hsGC) (Homo sapiens (Human), UniProt Q02108+Q02153); assay: Purified human sGC enzyme activity assay; assay type: biochemical
Procedure: Human soluble guanylate cyclase enzyme (hsGC) obtained from Enzo Inc. (P/N: ALX-201-177) was used to evaluate the activity of test compounds. The assay reactions contained 0.1 M Tris (pH 8.0), 0.5 mg/mL BSA (pH 8.0), 2 mM DTT, 2 mM MgCl2, 300 μM GTP, 1 mM 3-isobutyl-1-methylxanthine (IBMX) and 5 ng human soluble guanylate cyclase enzyme. Test compounds in DMSO were then added (2 μL, 10 or 30 μM final concentration) and incubated (200 μL, 96-well plate format) at 37° C. for 30 minutes. The controls were carried out using 2 μL DMSO. After the 30 minute incubation, the reaction was stopped with the addition of 200 μL of cold methanol. The plate was then centrifuged at 3,200 rpm for 10 minutes at room temperature. Supernatants (200 μL) were collected and transferred to a new 96 well plate for analysis.
An 8 point cGMP (Sigma-Aldrich P/N: G6129) standard curve was prepared in assay buffer ranging from 0.156-20 μM. Samples for the cGMP standard curve were then diluted with an equal volume of methanol resulting in final cGMP concentrations of 0.078-10 μM.
The cGMP standard curve was generated using GraphPad Prism Software.
Calculations: Specific Activity was determined by the amount of cGMP formed (nmoles) per mg of sGC per min. Enzyme “fold-change” was calculated by dividing Specific Activity for test compounds by Specific Activity of DMSO controls.

[2] = target: T1, soluble guanylate cyclase (sGC) (Homo sapiens (Human), UniProt Q02108+Q02153); assay: sGC-HEK-cGMP assay run with SNP incubation (HEK WC assay); assay type: cell-based; conditions: for HEK WC Assay (fold increase at 30 μM in the presence of 10 μM SNP): compound at 30 μM; for EC50: in the presence of 10 uM SNP
T1 sequence (Q02153 whole entry): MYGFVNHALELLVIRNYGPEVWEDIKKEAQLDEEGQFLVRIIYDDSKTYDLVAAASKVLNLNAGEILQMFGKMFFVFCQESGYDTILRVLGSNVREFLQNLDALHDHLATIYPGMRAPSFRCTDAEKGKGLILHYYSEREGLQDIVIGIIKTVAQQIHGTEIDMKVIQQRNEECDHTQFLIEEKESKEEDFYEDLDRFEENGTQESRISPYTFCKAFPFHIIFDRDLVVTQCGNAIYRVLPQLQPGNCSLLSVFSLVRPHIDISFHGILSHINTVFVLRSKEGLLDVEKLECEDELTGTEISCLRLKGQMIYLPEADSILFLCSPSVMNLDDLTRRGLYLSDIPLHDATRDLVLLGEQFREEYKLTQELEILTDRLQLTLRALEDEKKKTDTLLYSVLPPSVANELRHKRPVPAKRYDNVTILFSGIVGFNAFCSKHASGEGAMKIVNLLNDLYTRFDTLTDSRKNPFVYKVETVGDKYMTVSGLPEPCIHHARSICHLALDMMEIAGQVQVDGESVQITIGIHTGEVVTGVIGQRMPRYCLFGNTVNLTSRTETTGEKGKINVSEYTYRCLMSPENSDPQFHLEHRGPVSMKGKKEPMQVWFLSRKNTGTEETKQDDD
T1 sequence (Q02108 whole entry): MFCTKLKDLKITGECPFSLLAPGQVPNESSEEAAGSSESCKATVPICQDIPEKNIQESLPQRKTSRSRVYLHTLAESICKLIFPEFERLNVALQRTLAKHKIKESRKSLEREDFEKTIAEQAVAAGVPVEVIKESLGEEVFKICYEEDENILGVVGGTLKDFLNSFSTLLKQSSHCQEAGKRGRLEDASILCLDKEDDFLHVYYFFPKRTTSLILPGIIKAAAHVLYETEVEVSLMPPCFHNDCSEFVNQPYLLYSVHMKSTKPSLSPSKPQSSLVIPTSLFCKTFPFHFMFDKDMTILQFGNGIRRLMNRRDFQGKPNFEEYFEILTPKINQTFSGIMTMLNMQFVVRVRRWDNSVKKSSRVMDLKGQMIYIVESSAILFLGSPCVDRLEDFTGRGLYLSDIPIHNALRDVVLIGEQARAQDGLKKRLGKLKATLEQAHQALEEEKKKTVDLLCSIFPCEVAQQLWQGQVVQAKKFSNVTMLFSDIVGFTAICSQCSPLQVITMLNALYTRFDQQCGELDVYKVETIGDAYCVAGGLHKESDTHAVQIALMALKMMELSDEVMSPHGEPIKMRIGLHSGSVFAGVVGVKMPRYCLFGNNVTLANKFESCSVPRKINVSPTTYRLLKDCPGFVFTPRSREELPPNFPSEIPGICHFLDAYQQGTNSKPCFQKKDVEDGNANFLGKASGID
Procedure: Human embryonic kidney cells (HEK293), endogenously expressing soluble guanylate cyclase (sGC), were used to evaluate the activity of test compounds. Compounds stimulating the sGC receptor should cause an increase in the intracellular concentration of cGMP. HEK 293 cells were seeded in Dulbecco's Modification of Eagle's Medium supplemented with fetal bovine serum (10% final) and L-glutamine (2 mM final) in a 200 μL volume at a density of 1×10^5 cells/well in a poly-D-lysine coated 96 well flat bottom plate and grown overnight at 37° C. Medium was aspirated and cells were washed with 1× Hank's Buffered Saline Salt Solution (200 μL). Cells were then incubated for 15 minutes at 37° C. with 0.5 mM 3-isobutyl-1-methylxanthine (200 μL). Test article and sodium nitroprusside were then added to the assay mixture (2 μL each) and incubated at 37° C. for 10 minutes. After the 10 minute incubation, the assay mixture was aspirated and 0.1M HCl (200 μL) was added to the cells. The plate was incubated at 4° C. for 30 minutes in the 0.1M HCl to stop the reaction and lysed the cells. The plates were then centrifuged at 1,200 g for 5 minutes at room temperature. Supernatants were collected and transferred to a new flat bottom 96 well plate for analysis. Vehicle controls were carried out using DMSO (1%). […] Samples were diluted with an equal volume of 1 M Ammonium Acetate (pH 7) to neutralize samples for better chromatography. […] EC50 values were calculated from concentration-response curves generated with GraphPad Prism Software.

Thoracic aortic rings = assay: Alternative thoracic aortic rings assay (Example 19b; resting tension as 100% inhibition); design: species or system rat; conditions: Rattus norvegicus; for inhibition at 1 µM: read-out: Percent Relaxation at 1 μM; for inhibition at 3 µM: read-out: Percent Relaxation at 3 μM; for inhibition at 10 µM: read-out: Percent Relaxation at 10 μM; for EC50: read-out: Aortic Ring EC50
Procedure: Thoracic aortic rings were dissected from anesthetized (isoflurane) male Sprague-Dawley rats weighing 275-299 g. Tissues were immediately transferred to ice-cold Krebs-Henseleit solution, which had been aerated with 95% O2 and 5% CO2 for 30 minutes. Following removal of connective tissue, aortic sections were cut into 4 rings (˜2 mm each) and suspended on 2 L-shaped hooks, with one hook fixed at the bottom of the tissue bath (Schuler Organ Bath, Harvard Apparatus) and the other connected to a force transducer (F30 Force Transducer, Harvard Apparatus). Baths contained Krebs Henseleit solution (10 mL) heated to 37° C. and aerated with 95% O2 and 5% CO2. Rings were brought to an initial tension of 0.3-0.5 g and gradually raised to a resting tension of 1.0 g over 60 minutes. Rings were rinsed with Krebs Henseleit solution (heated to 37° C. and aerated with 95% O2 and 5% CO2) at 15 minute intervals until a stable baseline was obtained. Rings were considered to be stable after a resting tension of 1.0 g was maintained (for approximately 10 minutes) without need for adjustment. Rings were then contracted with 100 ng/mL phenylephrine by adding 100 uL of a 10 μg/mL phenylephrine stock solution. Tissues achieving a stable contraction were then treated in a cumulative, dose dependent manner with test compounds prepared in dimethylsulfoxide (DMSO). In some cases, tissues were rinsed three times over a 5 minute period with Krebs-Heinseleit's solution (heated to 37° C. and aerated with 95% O2 and 5% CO2), allowed to stabilize at baseline, and then used for characterization of other test articles or DMSO effects. All data were collected using the HSE-ACAD software provided by Harvard Apparatus. […] EC50 values were calculated from concentration-response curves generated with GraphPad Prism Software.

[3] = target: T1, soluble guanylate cyclase (sGC); assay: sGC-HEK-cGMP assay run in the absence of SNP (HEK WC assay); assay type: cell-based; conditions: compound at 30 μM, absence of SNP
Procedure: Human embryonic kidney cells (HEK293), endogenously expressing soluble guanylate cyclase (sGC), were used to evaluate the activity of test compounds. Compounds stimulating the sGC receptor should cause an increase in the intracellular concentration of cGMP. HEK 293 cells were seeded in Dulbecco's Modification of Eagle's Medium supplemented with fetal bovine serum (10% final) and L-glutamine (2 mM final) in a 200 μL volume at a density of 1×10^5 cells/well in a poly-D-lysine coated 96 well flat bottom plate and grown overnight at 37° C. Medium was aspirated and cells were washed with 1× Hank's Buffered Saline Salt Solution (200 μL). Cells were then incubated for 15 minutes at 37° C. with 0.5 mM 3-isobutyl-1-methylxanthine (200 μL). Test article was then added to the assay mixture (2 μL) and incubated at 37° C. for 10 minutes. After the 10 minute incubation, the assay mixture was aspirated and 0.1M HCl (200 μL) was added to the cells. The plate was incubated at 4° C. for 30 minutes in the 0.1M HCl to stop the reaction and lysed the cells. The plates were then centrifuged at 1,200 g for 5 minutes at room temperature. Supernatants were collected and transferred to a new flat bottom 96 well plate for analysis. Vehicle controls were carried out using DMSO (1%). A known sGC stimulator, BAY 41-2272, was used as the positive control. Samples were diluted with an equal volume of 1 M Ammonium Acetate (pH 7) to neutralize samples for better chromatography. A 2× cGMP standard curve was prepared in 0.1 M HCl and then diluted with an equal volume of 1 M Ammonium Acetate, with the following final concentrations in nM: 1024, 512, 256, 128, 64, 32, 16, 8, 4, 2, 1. cGMP concentrations were determined from each sample using the LC/MS conditions (Table 2 below) and calculated standard curve. EC50 values were calculated from concentration-response curves generated with GraphPad Prism Software.

[4] = read-out: HEK WC Assay (% Emax at 10 μM/with 10 uM SNP)
[5] = read-out: HEK WC Assay (% Emax at 30 μM/with 10 uM SNP)
[6] = read-out: HEK WC Assay (% Emax at 10 μM with 10 uM SNP)
[7] = read-out: HEK WC Assay (% Emax at 30 μM with 10 uM SNP)
[8] = read-out: HEK WC Assay (% Emax at 1 μM with 10 uM SNP)

Chain of Human soluble guanylate cyclase enzyme (hsGC) (Q02153 whole entry): as the sequence (Q02153 whole entry) above
Chain of Human soluble guanylate cyclase enzyme (hsGC) (Q02108 whole entry): as the sequence (Q02108 whole entry) above

Structure (SMILES)	Emax at 10 µM [2, 4] [%]	Emax at 30 µM [2, 5] [%]	Emax [2, 6] [%]	Emax [2, 7] [%]	EC50 [2] [µM]	inhibition at 1 µM (Thoracic aortic rings; Table 10B) [%]	inhibition at 3 µM (Thoracic aortic rings; Table 10B) [%]	EC50 (Thoracic aortic rings; Table 10B) [µM]	other results
Fc1ccccc1Cn1nc(-c2ncccn2)cc1-c1cc2ccccc2o1 [Compound I-68]	–	–	–	–	–	–	–	–	sGC Enzyme (fold increase at 10 μM without SNP) ([1]; 10 μM compound, without SNP): A (A = no increase to <2 fold increase); sGC Enzyme (fold increase at 30 μM without SNP) ([1]; 30 μM compound, without SNP): A (A = no increase to <2 fold increase); Emax at 10 µM ([2]; read-out: HEK WC Assay (% Emax at 10 uM/with 10 uM SNP)): 0 to 10%; Emax at 30 µM ([2]; read-out: HEK WC Assay (% Emax at 30 uM/with 10 uM SNP)): 0 to 10%
Fc1ccccc1Cn1nc(-c2ccccn2)cc1-c1ncccn1 [Compound I-80]	0 to 10	0 to 10	–	–	–	–	–	–	sGC Enzyme (fold increase at 10 μM) ([1]; 10 μM compound, without the addition of SNP): A (A = no increase to <2 fold increase); sGC Enzyme (fold increase at 30 μM) ([1]; 30 μM compound, without the addition of SNP): A (A = no increase to <2 fold increase)
Nc1nc(-c2cc(-c3ccon3)n(Cc3ccccc3F)n2)ncc1F [Compound I-109]	–	–	–	–	–	–	–	–	inhibition at 1 µM (Thoracic aortic rings; Table 10A): 80 to 100%; inhibition at 3 µM (Thoracic aortic rings; Table 10A): 60 to 80%; inhibition at 10 µM (Thoracic aortic rings; Table 10A): 100 to 120%; EC50 (Thoracic aortic rings; Table 10A): < 2 µM
CCOC(=O)c1cnc(-c2cc(-c3ccon3)n(Cc3ccccc3F)n2)nc1NCc1ccc(OC)cc1 [Compound I-134]	20 to 40	40 to 60	0 to 10	0 to 10	–	–	–	–	HEK WC Assay (fold increase at 30 μM in the absence of SNP) [3]: B (B = 1 to <2 fold increase); HEK WC Assay (fold increase at 30 μM in the presence of 10 μM SNP) [2]: B (B = 1 to <2 fold increase)
COc1ccc(CNc2nc(-c3cc(-c4ccon4)n(Cc4ccccc4F)n3)ncc2C(C)(C)O)cc1 [Compound I-135]	0 to 10	0 to 10	10 to 20	10 to 20	–	–	–	–	HEK WC Assay (fold increase at 30 μM in the absence of SNP) [3]: C (C = 2 to <5 fold increase); HEK WC Assay (fold increase at 30 μM in the presence of 10 μM SNP) [2]: D (D = 5 to <10 fold increase)
CCOC(=O)c1cnc(-c2cc(-c3ccon3)n(Cc3ccccc3F)n2)nc1O [Compound I-138]	40 to 60	40 to 60	–	–	–	–	–	–	inhibition at 1 µM (Thoracic aortic rings; Table 10A): 20 to 40%; inhibition at 3 µM (Thoracic aortic rings; Table 10A): 40 to 60%; EC50 (Thoracic aortic rings; Table 10A): 2 to 4 µM
CCOC(=O)c1cnc(-c2cc(-c3ccon3)n(Cc3ccccc3F)n2)nc1Cl [Compound I-140]	60 to 80	40 to 60	–	–	–	–	–	–	inhibition at 1 µM (Thoracic aortic rings; Table 10A): 20 to 40%; inhibition at 3 µM (Thoracic aortic rings; Table 10A): 60 to 80%; inhibition at 10 µM (Thoracic aortic rings; Table 10A): 80 to 100%; EC50 (Thoracic aortic rings; Table 10A): < 2 µM
Nc1nc(-c2cc(-c3ccon3)n(Cc3ccccc3F)n2)ncc1NC(=O)C1CC1 [Compound I-144]	–	–	100 to 120	60 to 80	< 20	80 to 100	100 to 120	< 2	–
Oc1nc(-c2cc(-c3ccon3)n(Cc3ccccc3F)n2)ncc1F [Compound I-161]	–	–	–	–	–	80 to 100	100 to 120	< 2	–
Nc1nc(-c2cc(-c3ccon3)n(Cc3ccccc3F)n2)ncc1NC(=O)c1nccs1 [Compound I-189]	–	–	60 to 80	60 to 80	< 20	80 to 100	80 to 100	< 2	Emax [2, 8]: 60 to 80%
CC1(C(=O)Nc2cnc(-c3cc(-c4ccon4)n(Cc4ccccc4F)n3)nc2N)CC1(F)F (stereo not drawn) [Compound I-245]	–	–	100 to 120	100 to 120	< 20	80 to 100	100 to 120	< 2	Emax [2, 8]: 80 to 100%; inhibition at 10 µM (Thoracic aortic rings; Table 10B): 100 to 120%
Cc1cnc(-c2cc(-c3ccon3)n(Cc3ccccc3F)n2)nc1N [Compound I-297]	–	–	40 to 60	80 to 100	< 20	20 to 40	60 to 80	< 2	–
Fc1ccccc1Cn1nc(-c2ncccn2)cc1-c1ccno1 [Compound I-305]	–	–	–	–	–	40 to 60	80 to 100	< 2	inhibition at 10 µM (Thoracic aortic rings; Table 10B): 100 to 120%
